Regarding `Cn1nccc1OCc1c(S(C)(=O)=O)ccc(C(=O)C2C(=O)CC(C)(C)CC2=O)c1Cl` (hydrate or solvate), the melting point (as a rule, the temperature, or range, at which the solid turns liquid) was 82 °C.

These data come from US6432881B1 (dated 2002).
